The record followed here is US11155597B2, “Relaxin1 derived peptides for use in immunotherapy” (Immatics Biotechnologies GmbH, priority 2015, dated 2021).

The experiment relates to CD8+ T cells of healthy HLA-A*02+ donors. Nature of the experiment: In vitro immunogenicity: T-cell priming with aAPCs loaded with peptide/MHC and anti-CD28, pMHC multimer readout. It counts as cell-based, human. Conditions: for Wells positive [%]: HLA-A*02 restricted peptides, Table 6B. The source says:
In order to obtain information regarding the immunogenicity of the TUMAPs of the present invention, the inventors performed investigations using an in vitro T-cell priming assay based on repeated stimulations of CD8+ T cells with artificial antigen presenting cells (aAPCs) loaded with peptide/MHC complexes and anti-CD28 antibody.
In order to perform in vitro stimulations by artificial antigen presenting cells loaded with peptide-MHC complex (pMHC) and anti-CD28 antibody, the inventors first isolated CD8+ T cells from fresh HLA-A*02 leukapheresis products via positive selection using CD8 microbeads (Miltenyi Biotec, Bergisch-Gladbach, Germany) of healthy donors obtained from the University clinics Mannheim, Germany, after informed consent. PBMCs and isolated CD8+ lymphocytes were incubated in T-cell medium (TCM) until use consisting of RPMI-Glutamax (Invitrogen, Karlsruhe, Germany) supplemented with 10% heat inactivated human AB serum (PAN-Biotech, Aidenbach, Germany), 100 U/ml Penicillin/100 μg/ml Streptomycin (Cambrex, Cologne, Germany), 1 mM sodium pyruvate (CC Pro, Oberdorla, Germany), 20 μg/ml Gentamycin (Cambrex). 2.5 ng/ml IL-7 (PromoCell, Heidelberg, Germany) and 10 U/ml IL-2 (Novartis Pharma, Nürnberg, Germany) were also added to the TCM at this step. Generation of pMHC/anti-CD28 coated beads, T-cell stimulations and readout was performed in a highly defined in vitro system using four different pMHC molecules per stimulation condition and 8 different pMHC molecules per readout condition.
The purified co-stimulatory mouse IgG2a anti human CD28 Ab 9.3 (Jung et al., 1987) was chemically biotinylated using Sulfo-N-hydroxysuccinimidobiotin as recommended by the manufacturer (Perbio, Bonn, Germany). Beads used were 5.6 μm diameter streptavidin coated polystyrene particles (Bangs Laboratories, Illinois, USA).
pMHC used for positive and negative control stimulations were A*0201/MLA-001 (peptide […] (SEQ ID NO. 289) from modified Melan-A/MART-1) and A*0201/DDX5-001 ([…] from DDX5, SEQ ID NO. 290), respectively.
800.000 beads/200 μl were coated in 96-well plates in the presence of 4×12.5 ng different biotin-pMHC, washed and 600 ng biotin anti-CD28 were added subsequently in a volume of 200 μl. Stimulations were initiated in 96-well plates by co-incubating 1×10^6 CD8+ T cells with 2×10^5 washed coated beads in 200 μl TCM supplemented with 5 ng/ml IL-12 (PromoCell) for 3 days at 37° C. Half of the medium was then exchanged by fresh TCM supplemented with 80 U/ml IL-2 and incubating was continued for 4 days at 37° C. This stimulation cycle was performed for a total of three times. For the pMHC multimer readout using 8 different pMHC molecules per condition, a two-dimensional combinatorial coding approach was used as previously described (Andersen et al., 2012) with minor modifications encompassing coupling to 5 different fluorochromes. Finally, multimeric analyses were performed by staining the cells with Live/dead near IR dye (Invitrogen, Karlsruhe, Germany), CD8-FITC antibody clone SK1 (BD, Heidelberg, Germany) and fluorescent pMHC multimers. For analysis, a BD LSRII SORP cytometer equipped with appropriate lasers and filters was used. Peptide specific cells were calculated as percentage of total CD8+ cells. Evaluation of multimeric analysis was done using the FlowJo software (Tree Star, Oregon, USA). In vitro priming of specific multimer+CD8+ lymphocytes was detected by comparing to negative control stimulations.
Exemplary flow cytometry results after TUMAP-specific multimer staining for peptide of the invention are shown in FIG. 3 together with corresponding negative controls.

As to “4 (VLFGELPAL; listed as Homo sapiens) [compound 4]”, the “Wells positive [%]” value was “+ (<20% = +)”.

As for “9 (SLITGQDLLSV; listed as Homo sapiens) [compound 9]”, the “Wells positive [%]” value was “+ (<20% = +)”.

“14 (YTFSGDVQL; listed as Homo sapiens) [compound 14]”: the “Wells positive [%]” value is “+ (<20% = +)”.

As for “17 (GLLPSAESIKL; listed as Homo sapiens) [compound 17]”, the “Wells positive [%]” value is on record as “+ (<20% = +)”.

“27 (GLLGKVTSV; listed as Homo sapiens) [compound 27]”: the “Wells positive [%]” value is recorded as “+ (<20% = +)”.

Turning to “29 (KMISAIPTL; listed as Homo sapiens) [compound 29]”, the “Wells positive [%]” value is given as “+ (<20% = +)”.

For the substance “35 (VIIKGLEEI; listed as Homo sapiens) [compound 35]”, the “Wells positive [%]” value was “+ (<20% = +)”.

As for “50 (ILLSVLHQL; listed as Homo sapiens) [compound 50]”, the “Wells positive [%]” value was “+ (<20% = +)”.

Regarding “66 (AMFPDTIPRV; listed as Homo sapiens) [compound 66]”, the “Wells positive [%]” value is listed as “+ (<20% = +)”.

For the substance “77 (ALYGNVQQV; listed as Homo sapiens) [compound 77]”, the “Wells positive [%]” value is given as “+ (<20% = +)”.

For the substance “89 (SLAETIFIV; listed as Homo sapiens) [compound 89]”, the “Wells positive [%]” value is “+ (<20% = +)”.

Turning to “97 (KLFEKSTGL; listed as Homo sapiens) [compound 97]”, the “Wells positive [%]” value is given as “+ (<20% = +)”.

With “101 (SLLEVNEASSV; listed as Homo sapiens) [compound 101]”, the “Wells positive [%]” value is listed as “+ (<20% = +)”.

Regarding “102 (GLYPVTLVGV; listed as Homo sapiens) [compound 102]”, the “Wells positive [%]” value is given as “+ (<20% = +)”.

For “121 (ALYVQAPTV; listed as Homo sapiens) [compound 121]”, the “Wells positive [%]” value is recorded as “+ (<20% = +)”.

“157 (ILQDGQFLV; listed as Homo sapiens) [compound 157]”: the “Wells positive [%]” value is “+ (<20% = +)”.

Turning to “233 (SLFESLEYL; listed as Homo sapiens) [compound 233]”, the “Wells positive [%]” value was “+ (<20% = +)”.

In the case of “236 (KMSELQTYV; listed as Homo sapiens) [compound 236]”, the “Wells positive [%]” value was “+ (<20% = +)”.

As to “242 (KLQEEIPVL; listed as Homo sapiens) [compound 242]”, the “Wells positive [%]” value was “+ (<20% = +)”.

For the substance “246 (ALAGIVTNV; listed as Homo sapiens) [compound 246]”, the “Wells positive [%]” value is listed as “+ (<20% = +)”.

Regarding “254 (ALGDKFLLRV; listed as Homo sapiens) [compound 254]”, the “Wells positive [%]” value is reported as “+ (<20% = +)”.

As to “255 (FLMKNSDLYGA; listed as Homo sapiens) [compound 255]”, the “Wells positive [%]” value is given as “+ (<20% = +)”.

As for “257 (KLIDHQGLYL; listed as Homo sapiens) [compound 257]”, the “Wells positive [%]” value is recorded as “+ (<20% = +)”.

“260 (ALNESLVEC; listed as Homo sapiens) [compound 260]”: the “Wells positive [%]” value was “+ (<20% = +)”.

Turning to “263 (SIIEYLPTL; listed as Homo sapiens) [compound 263]”, the “Wells positive [%]” value is reported as “+ (<20% = +)”.

As for “264 (TLHDQVHLL; listed as Homo sapiens) [compound 264]”, the “Wells positive [%]” value is on record as “+ (<20% = +)”.

With “267 (YLLDMPLWYL; listed as Homo sapiens) [compound 267]”, the “Wells positive [%]” value is recorded as “+ (<20% = +)”.

As to “287 (KIQEILTQV; listed as Homo sapiens) [compound 287]”, the “in vitro immunogenicity: wells” value (percentage of positive wells, Table 6A) is recorded as “+ (<20% = +)”.

Turning to “288 (SLYKGLLSV; listed as Homo sapiens) [compound 288]”, the “in vitro immunogenicity: donors” value (percentage of positive donors, Table 6A) is listed as “++++ (> = 70% = ++++)”.
